Read-outs that look alike come from different tables or passages of the source.
Key:
PC-3 cells = assay: Cell Proliferation Assay (Cell Titer Glo), PC-3 cell line; format: cell-based; settings: PC3, read-out: CPEC50 PC3
Procedure, shortened: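 PC-3 cells, 1000 cells/well, left to adhere 3-5 h, then exposed for 3 days at 37° C to compounds as 1:3 serial dilutions from 500× DMSO stocks diluted in growth medium. Medium then replaced with fresh medium and viability read by Cell Titer Glo luminescence.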

PDK1 kinase = biological target: T1, PDK1 kinase (Homo sapiens, UniProt O15530); assay: PDK1 Kinase Alpha Screen Assay; format: biochemical; settings: PDK1 Kinase Alpha Screen Assay; read-out: PDK1 IC50
T1 sequence (O15530 1-556): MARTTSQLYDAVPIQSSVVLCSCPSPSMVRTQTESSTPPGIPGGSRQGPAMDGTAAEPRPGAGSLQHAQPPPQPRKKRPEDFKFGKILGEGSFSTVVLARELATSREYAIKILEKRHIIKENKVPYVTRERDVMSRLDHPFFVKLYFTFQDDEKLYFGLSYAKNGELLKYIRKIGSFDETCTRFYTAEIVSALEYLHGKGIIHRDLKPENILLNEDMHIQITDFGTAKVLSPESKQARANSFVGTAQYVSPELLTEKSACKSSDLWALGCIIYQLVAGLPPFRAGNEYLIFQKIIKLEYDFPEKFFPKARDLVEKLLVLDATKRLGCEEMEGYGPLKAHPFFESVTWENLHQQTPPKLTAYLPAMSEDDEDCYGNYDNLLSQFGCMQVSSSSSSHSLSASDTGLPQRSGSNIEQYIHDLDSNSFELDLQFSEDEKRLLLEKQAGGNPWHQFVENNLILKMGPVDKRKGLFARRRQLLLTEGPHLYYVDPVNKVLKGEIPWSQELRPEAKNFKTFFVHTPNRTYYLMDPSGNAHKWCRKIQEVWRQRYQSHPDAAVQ
Procedure, shortened: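 Test compounds were incubated with PDK1 kinase, 10 uM ATP and 50 nM biotinylated peptide substrate for 3-18 hours at pH 7.5 with 2.5% DMSO. Peptide phosphorylation was then detected by AlphaScreen proximity luminescence using a phospho-(Ser/Thr) PKA substrate antibody.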

[1] = Homo sapiens, PC-3, Cell Proliferation Assay

EC50 (PC-3 cells; [1]) [µM] | IC50 (PDK1 kinase) [µM] | EC50 (PC-3 cells; Cell Proliferation Assay) [µM] | Structure (SMILES)
5 to 10 | < 5 |  | Cc1ccc(OC2CCNCC2)c2nc(Nc3ccc(C(=O)N4CCOCC4)cc3)ncc12 [Compound 356, (4-(5-methyl-8-(piperidin-4-yloxy)quinazolin-2-ylamino)phenyl)(morpholino)methanone]
< 5 | < 5 |  | CC(C)NS(=O)(=O)c1ccc(Nc2ncc3c(Br)ccc(OC4CCN(C(C)C)CC4)c3n2)cc1 [Compound 357, 4-(5-bromo-8-(1-isopropylpiperidin-4-yloxy)quinazolin-2-ylamino)-N-isopropylbenzenesulfonamide]
5 to 10 | < 5 |  | CC(C)N1CCC(Oc2ccc(Br)c3cnc(Nc4ccc(C(=O)N5CCOCC5)cc4)nc23)CC1 [Compound 358, (4-(5-bromo-8-(1-isopropylpiperidin-4-yloxy)quinazolin-2-ylamino)phenyl)(morpholino)methanone]
5 to 10 | < 5 |  | Cc1ccc(OC2CCN(C(C)C)CC2)c2nc(Nc3ccc(C(=O)N4CCOCC4)cc3)ncc12 [Compound 359, (4-(8-(1-isopropylpiperidin-4-yloxy)-5-methylquinazolin-2-ylamino)phenyl)(morpholino)methanone]
< 5 | < 5 |  | Cc1ccc(OC2CCN(C(C)C)CC2)c2nc(Nc3ccc(S(=O)(=O)NC(C)C)cc3)ncc12 [Compound 360, N-isopropyl-4-(8-(1-isopropylpiperidin-4-yloxy)-5-methylquinazolin-2-ylamino)benzenesulfonamide]
5 to 10 | < 5 |  | NS(=O)(=O)c1ccc(Nc2ncc3ccc(NC4CCNCC4)cc3n2)cc1 [Compound 361, 4-(7-(piperidin-4-ylamino)quinazolin-2-ylamino)benzenesulfonamide]
< 5 | < 5 |  | Cc1ccc(OC2CCNCC2)c2nc(Nc3ccc(N4CCOCC4)c(Cl)c3)ncc12 [Compound 362, N-(3-chloro-4-morpholinophenyl)-5-methyl-8-(piperidin-4-yloxy)quinazolin-2-amine]
< 5 | < 5 |  | Clc1cc(Nc2ncc3ccc(NC4CCNCC4)cc3n2)ccc1N1CCOCC1 [Compound 363, N2-(3-chloro-4-morpholinophenyl)-N7-(piperidin-4-yl)quinazoline-2,7-diamine]
5 to 10 | < 5 |  | Cc1ccc(OC2CCNCC2)c2nc(Nc3cccc(F)c3)ncc12 [Compound 365, N-(3-fluorophenyl)-5-methyl-8-(piperidin-4-yloxy)quinazolin-2-amine]
5 to 10 | < 5 |  | Cc1ccc(OC2CCNCC2)c2nc(Nc3ccc(N4CCOCC4)c(F)c3)ncc12 [Compound 366, N-(3-fluoro-4-morpholinophenyl)-5-methyl-8-(piperidin-4-yloxy)quinazolin-2-amine]
5 to 10 | < 5 |  | Cc1ccc(OC2CCNCC2)c2nc(Nc3ccc(S(=O)(=O)N4CCOCC4)cc3)ncc12 [Compound 367, 5-methyl-N-(4-(morpholinosulfonyl)phenyl)-8-(piperidin-4-yloxy)quinazolin-2-amine]
< 5 | < 5 |  | CN1CCC(Nc2ccc3cnc(Nc4ccc(N5CCOCC5)c(F)c4)nc3c2)CC1 [Compound 368, N2-(3-fluoro-4-morpholinophenyl)-N7-(1-methylpiperidin-4-yl)quinazoline-2,7-diamine]
5 to 10 | < 5 |  | CN1CCC(Nc2ccc3cnc(Nc4ccc(N5CCOCC5)cc4)nc3c2)CC1 [Compound 369, N7-(1-methylpiperidin-4-yl)-N2-(4-morpholinophenyl)quinazoline-2,7-diamine]
< 5 | 10 to 25 |  | CN1CCN(c2ccc(Nc3ncc4c(Br)ccc(OC5CCNCC5)c4n3)cc2)CC1 [Compound 373, 5-bromo-N-(4-(4-methylpiperazin-1-yl)phenyl)-8-(piperidin-4-yloxy)quinazolin-2-amine]
5 to 10 | 5 to 10 |  | COc1cc(C(=O)NC2CCN(C)CC2)ccc1Nc1ncc2c(C)ccc(OC3CCNCC3)c2n1 [Compound 375, 3-methoxy-4-(5-methyl-8-(piperidin-4-yloxy)quinazolin-2-ylamino)-N-(1-methylpiperidin-4-yl)benzamide]
< 5 | < 5 |  | CN1CCC(Nc2ccc(Cl)c3cnc(Nc4ccc(C(=O)N5CCOCC5)cc4)nc23)CC1 [Compound 377, (4-(5-chloro-8-(1-methylpiperidin-4-ylamino)quinazolin-2-ylamino)phenyl) (morpholino)methanone]

EC50 (PC-3 cells; [1]) [µM] | IC50 (PDK1 kinase) [µM] | EC50 (PC-3 cells; Cell Proliferation Assay) [µM] | Structure (SMILES)
< 5 | < 5 |  | O=C(c1ccc(Nc2ncc3c(Cl)ccc(OC4CCNCC4)c3n2)cc1F)N1CCOCC1 [Compound 378, (4-(5-chloro-8-(piperidin-4-yloxy)quinazolin-2-ylamino)-2-fluorophenyl)(morpholino)methanone]
< 5 | < 5 |  | CC(C)NC(=O)c1ccc(Nc2ncc3c(Cl)ccc(OC4CCNCC4)c3n2)cc1F [Compound 379, 4-(5-chloro-8-(piperidin-4-yloxy)quinazolin-2-ylamino)-2-fluoro-N-isopropylbenzamide]
< 5 | < 5 |  | COc1cccc(Nc2ncc3c(Cl)ccc(OC4CCNCC4)c3n2)c1 [Compound 380, 5-chloro-N-(3-methoxyphenyl)-8-(piperidin-4-yloxy)quinazolin-2-amine]
< 5 | < 5 |  | NC(=O)c1cc(Nc2ncc3c(Cl)ccc(OC4CCNCC4)c3n2)cc(C(F)(F)F)c1 [Compound 381, 3-(5-chloro-8-(piperidin-4-yloxy)quinazolin-2-ylamino)-5-(trifluoromethyl)benzamide]
5 to 10 | < 5 |  | CC(=O)Nc1cc(NC(C)=O)cc(Nc2ncc3c(Cl)ccc(OC4CCNCC4)c3n2)c1 [Compound 382, N,N′-(5-(5-chloro-8-(piperidin-4-yloxy)quinazolin-2-ylamino)-1,3-phenylene)diacetamide]
5 to 10 | < 5 |  | COc1ccc(C(F)(F)F)c2cnc(Nc3ccc(C(=O)N4CCOCC4)cc3)nc12 [Compound 383]
5 to 10 | < 5 |  | FC(F)(F)c1ccc(OC2CCNCC2)c2nc(Nc3ccc(N4CCOCC4)cc3)ncc12 [Compound 384, N-(4-morpholinophenyl)-8-(piperidin-4-yloxy)-5-(trifluoromethyl)quinazolin-2-amine]
 | < 5 | < 5 | FC(F)(F)c1ccc(OC2CCNCC2)c2nc(Nc3ccc(N4CCOCC4)cc3)ncc12 [Compound 385, N-(4-morpholinophenyl)-8-(piperidin-4-yloxy)-5-(trifluoromethyl)quinazolin-2-amine]
< 5 | < 5 |  | CC(C)N1CCC(Oc2cc(Br)cc3cnc(Nc4ccc(F)cc4)nc23)CC1 [Compound 389, 6-bromo-N-(4-fluorophenyl)-8-(1-isopropylpiperidin-4-yloxy)quinazolin-2-amine]
5 to 10 | < 5 |  | Cc1ccc(C(=O)O)cc1-c1ccc2cnc(Nc3ccc(S(N)(=O)=O)cc3)nc2c1 [Compound 390, 4-methyl-3-(2-(4-sulfamoylphenylamino)quinazolin-7-yl)benzoic acid]
< 5 | < 5 |  | c1cc(-c2ccc(NCCN3CCCC3)nc2)c2nc(Nc3ccc4[nH]cnc4c3)ncc2c1 [Compound 393, N-(1H-benzo[d]imidazol-5-yl)-8-(6-(2-(pyrrolidin-1-yl)ethylamino)pyridin-3-yl)quinazolin-2-amine]
< 5 | < 5 |  | COc1cccc(Nc2ncc3cccc(-c4ccc(NCCN5CCCC5)nc4)c3n2)c1 [Compound 395, N-(3-methoxyphenyl)-8-(6-(2-(pyrrolidin-1-yl)ethylamino)pyridin-3-yl)quinazolin-2-amine]
5 to 10 | < 5 |  | CC(=O)Nc1ccc(Nc2ncc3cccc(-c4ccc(NCCN5CCCC5)nc4)c3n2)cc1 [Compound 396, N-(4-(8-(6-(2-(pyrrolidin-1-yl)ethylamino)pyridin-3-yl)quinazolin-2-ylamino)phenyl)acetamide]
< 5 | < 5 |  | N#Cc1cccc(Nc2ncc3cccc(-c4ccc(NCCN5CCCC5)nc4)c3n2)c1 [Compound 397, 3-(8-(6-(2-(pyrrolidin-1-yl)ethylamino)pyridin-3-yl)quinazolin-2-ylamino)benzonitrile]
< 5 | < 5 |  | Clc1cccc(Nc2ncc3cccc(-c4ccc(NCCN5CCCC5)nc4)c3n2)c1 [Compound 398, N-(3-chlorophenyl)-8-(6-(2-(pyrrolidin-1-yl)ethylamino)pyridin-3-yl)quinazolin-2-amine]
